Laboratory results as given in PubChem BioAssay AID256 (DTP/NCI, 2004).
Several values for one entry are separate records, joined by “and”; a condition that tells them apart may be missing. Equal values may be shown once. Inconclusive results and toxic doses are left out.

System: CD2F1 mice, L1210 leukemia ip, survival T/C
Test: NCI In Vivo Anticancer Drug Screen. Data for tumor model L1210 Leukemia (intraperitoneal) in CD2F1 (CDF1) mice
Conditions: endpoint: mean survival time, higher = longer survival
In short: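 Transplantable tumor in mice; compound-treated vs vehicle-treated groups. Read-out = treated/control ratio of the measured endpoint.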

[1] = dose: 100.0 mg/kg/injection, schedule: Q01DX001 (ip), vehicle: saline with Tween-80
[2] = dose: 200.0 mg/kg/injection, schedule: Q01DX001 (ip), vehicle: saline with Tween-80
[3] = dose: 100.0 mg/kg/injection, schedule: Q04DX003 (ip), vehicle: saline with Tween-80
[4] = dose: 200.0 mg/kg/injection, schedule: Q04DX003 (ip), vehicle: saline with Tween-80
[5] = dose: 400.0 mg/kg/injection, schedule: Q04DX003 (ip), vehicle: saline with Tween-80
[6] = dose: 100.0 mg/kg/injection, schedule: Q01DX009 (ip), vehicle: saline with Tween-80
[7] = dose: 200.0 mg/kg/injection, schedule: Q01DX009 (ip), vehicle: saline with Tween-80
[8] = dose: 400.0 mg/kg/injection, schedule: Q01DX009 (ip), vehicle: saline with Tween-80
[9] = dose: 25.0 mg/kg/injection, schedule: Q01DX009 (ip), vehicle: saline with Tween-80
[10] = dose: 50.0 mg/kg/injection, schedule: Q01DX009 (ip), vehicle: saline with Tween-80

CC(=O)COc1ccccc1[N+](=O)[O-]
T/C [1]: 108 % of control | T/C [2]: 104 % of control | T/C (dose: 400.0 mg/kg/injection, schedule: Q01DX001 (ip), vehicle: saline with Tween-80): 112 % of control

OC1CCCCC12CC2 (stereo not given)
T/C [3]: 102 % of control | T/C [4]: 104 % of control | T/C [5]: 113 % of control

CCOC(=O)C(F)(F)F
T/C (dose: 100.0 mg/kg/injection, schedule: Q01DX009 (ip), vehicle: saline): 95 % of control | T/C (dose: 200.0 mg/kg/injection, schedule: Q01DX009 (ip), vehicle: saline): 103 % of control | T/C (dose: 400.0 mg/kg/injection, schedule: Q01DX009 (ip), vehicle: saline): 95 % of control

CSc1cccc(NC(=O)OCCOc2ccc(NC(C)=O)cc2)c1
T/C [6]: 101 % of control | T/C [7]: 97 % of control | T/C [8]: 93 % of control

CCCCCCCCCCCCCCCCCC[N+]1(C)CCSCC1
T/C (dose: 12.5 mg/kg/injection, schedule: Q01DX001 (ip), vehicle: saline with Tween-80): 95 % of control | T/C (dose: 25.0 mg/kg/injection, schedule: Q01DX001 (ip), vehicle: saline with Tween-80): 103 % of control | T/C (dose: 50.0 mg/kg/injection, schedule: Q01DX001 (ip), vehicle: saline with Tween-80): 104 % of control | T/C [1]: 91 % of control and 101 % of control | T/C [2]: 101 % of control and 110 % of control

CN(C)N=Nc1ccccc1C(=O)NNC(N)=S
T/C (dose: 18.75 mg/kg/injection, schedule: Q01DX009 (ip), vehicle: Klucel (hydroxypropylcellulose) (HPC)): 98 % of control and 103 % of control | T/C (dose: 37.5 mg/kg/injection, schedule: Q01DX009 (ip), vehicle: Klucel (hydroxypropylcellulose) (HPC)): 121 % of control and 101 % of control | T/C (dose: 75.0 mg/kg/injection, schedule: Q01DX009 (ip), vehicle: Klucel (hydroxypropylcellulose) (HPC)): 107 % of control and 109 % of control | T/C (dose: 150.0 mg/kg/injection, schedule: Q01DX009 (ip), vehicle: Klucel (hydroxypropylcellulose) (HPC)): 115 % of control and 116 % of control | T/C (dose: 300.0 mg/kg/injection, schedule: Q01DX009 (ip), vehicle: Klucel (hydroxypropylcellulose) (HPC)): 104 % of control and 107 % of control

CCCCCCCCCCC(=O)OCC1OC2C(Oc3nc(=N)ccn32)C1OC(=O)CCCCCCCCCC (stereo not given)
T/C (dose: 12.5 mg/kg/injection, schedule: Q01DX009 (ip), vehicle: water): 156 % of control | T/C (dose: 25.0 mg/kg/injection, schedule: Q01DX009 (ip), vehicle: water): 202 % of control | T/C (dose: 50.0 mg/kg/injection, schedule: Q01DX009 (ip), vehicle: water): 242 % of control | T/C (dose: 100.0 mg/kg/injection, schedule: Q01DX009 (ip), vehicle: water): 118 % of control

CC(C)CCCC(C)C1CCC2C3=CCC4CC(O)CCC4(C)C3CCC21C (stereo not given)
T/C [3]: 100 % of control | T/C [4]: 91 % of control | T/C [5]: 94 % of control

CNN(C)N=Nc1ccc(C(N)=O)cc1
T/C (dose: 19.75 mg/kg/injection, schedule: Q01DX009 (ip), vehicle: Klucel (hydroxypropylcellulose) (HPC)): 110 % of control | T/C (dose: 39.5 mg/kg/injection, schedule: Q01DX009 (ip), vehicle: Klucel (hydroxypropylcellulose) (HPC)): 118 % of control | T/C (dose: 79.0 mg/kg/injection, schedule: Q01DX009 (ip), vehicle: Klucel (hydroxypropylcellulose) (HPC)): 93 % of control

O=c1[nH]c(=S)ccn1C1OC(COP(=O)(O)O)C(O)C1O (stereo not given)
T/C (dose: 12.5 mg/kg/injection, schedule: Q01DX005 (ip), vehicle: water): 98 % of control | T/C (dose: 25.0 mg/kg/injection, schedule: Q01DX005 (ip), vehicle: water): 103 % of control | T/C (dose: 50.0 mg/kg/injection, schedule: Q01DX005 (ip), vehicle: water): 103 % of control | T/C (dose: 100.0 mg/kg/injection, schedule: Q01DX005 (ip), vehicle: water): 103 % of control | T/C (dose: 200.0 mg/kg/injection, schedule: Q01DX005 (ip), vehicle: water): 103 % of control

COS(=O)C(c1ccccc1)C(c1ccccc1)C(O)c1ccccc1 (stereo not given)
T/C [6]: 90 % of control | T/C [7]: 90 % of control | T/C [8]: 95 % of control

COc1cc2c(cc1OC)C(CC(C)C)=[N+](C)CC2
T/C [9]: 103 % of control | T/C [10]: 98 % of control | T/C [6]: 109 % of control | T/C (dose: 100.0 mg/kg/injection, schedule: Q04DX002 (ip), vehicle: saline with Tween-80): 92 % of control

Cc1cccc(C)c1C1=NCCN1
T/C (dose: 12.5 mg/kg/injection, schedule: Q01DX009 (ip), vehicle: saline with Tween-80): 98 % of control | T/C [9]: 98 % of control | T/C [10]: 98 % of control

CC(C)(C)COC(=O)Nc1cccc(O)c1
T/C [3]: 96 % of control | T/C [4]: 95 % of control | T/C [5]: 102 % of control
